Measurements taken from US10040803B2, “4-((2-acrylamidophenyl)amino)thieno[3,2-D]pyrimidine-7-carboxamide derivatives as protein kinase inhibitors” (KOREA INSTITUTE OF SCIENCE AND TECHNOLOGY, priority 2016, dated 2018).

Key:
[1] = test system: Hep3B cells; experiment: Inhibition of growth of liver cancer cell line Hep3B (CellTiter-Glo); assay type: cell-based; details: Homo sapiens, CellTiter-Glo luminescence
Description: (§1) The inhibition activity for liver cancer cell lines was measured for 4-((2-acrylamido-6-methylphenyl)amino)-N-(3,5-dimethoxyphenyl)thieno[3,2-d]pyrimidine-7-carboxamide (Compound 1) and 4-((2-acrylamido-6-methylphenyl)amino)-N-(2-methyl-5-(3-(trifluoromethyl)benzamido)phenyl)thieno[3,2-d]pyrimidine-7-carboxamide (Compound 2) synthesized in the present invention.
(§2) Hep3B or HUH7 cells were seeded onto a 96-well plate with 5,000 cells per well and then cultured overnight in F-12K Nutrient Mixture (Life Technologies Corporation) containing 10% FBS at 37° C. in the presence of 5% CO2. The test compound dissolved in dimethyl sulfoxide was diluted to a final concentration of 1-50 μM and then added to the 96-well plate. After culturing at 37° C. in the presence of 5% CO2 and adding a cell count reagent (CellTiter-Glo® Luminescent Cell Viability Assay), luminescence intensity was measured using a luminescence measuring apparatus (Envision).

[2] = test system: HUH7 cells; experiment: Inhibition of growth of liver cancer cell line HUH7 (CellTiter-Glo); assay type: cell-based; details: Homo sapiens, Huh-7, CellTiter-Glo luminescence
Description: as §1, §2

| GI50 [1] | GI50 [2] | SMILES |
| --- | --- | --- |
| < 10 µM | < 10 µM | C=CC(=O)Nc1cccc(C)c1Nc1ncnc2c(C(=O)Nc3cc(OC)cc(OC)c3)csc12 [Compound 1, 4-((2-acrylamido-6-methylphenyl)amino)-N-(3,5-dimethoxyphenyl)thieno[3,2-d]pyrimidine-7-carboxamide] |
| < 1 µM | < 1 µM | C=CC(=O)Nc1cccc(C)c1Nc1ncnc2c(C(=O)Nc3cc(NC(=O)c4cccc(C(F)(F)F)c4)ccc3C)csc12 [Compound 2, 4-((2-acrylamido-6-methylphenyl)amino)-N-(2-methyl-5-(3-(trifluoromethyl)benzamido)phenyl)thieno[3,2-d]pyrimidine-7-carboxamide] |
